Values quoted from earlier work in patent US20100279974A1, “Nucleosides With Non-Natural Bases as Anti-Viral Agents” (priority 2005, published 2010).

Details: in vivo

| Compound | antiviral activity |
| --- | --- |
| NC(=O)c1nccn(C2OC(COP(=O)(O)OP(=O)(O)OP(=O)(O)O)C(O)C2O)c1=O (centres unmarked) | exhibits antiviral activity in vivo |
| NC(=O)c1nccn([C@@H]2O[C@H](CO)[C@@H](O)[C@H]2O)c1=O [non-phosphorylated nucleoside form] | appears to be inactive |
